For series [1], the target named is T1, Bile acid receptor (Homo sapiens, UniProt Q96RI1).
T1 sequence (Q96RI1 whole entry): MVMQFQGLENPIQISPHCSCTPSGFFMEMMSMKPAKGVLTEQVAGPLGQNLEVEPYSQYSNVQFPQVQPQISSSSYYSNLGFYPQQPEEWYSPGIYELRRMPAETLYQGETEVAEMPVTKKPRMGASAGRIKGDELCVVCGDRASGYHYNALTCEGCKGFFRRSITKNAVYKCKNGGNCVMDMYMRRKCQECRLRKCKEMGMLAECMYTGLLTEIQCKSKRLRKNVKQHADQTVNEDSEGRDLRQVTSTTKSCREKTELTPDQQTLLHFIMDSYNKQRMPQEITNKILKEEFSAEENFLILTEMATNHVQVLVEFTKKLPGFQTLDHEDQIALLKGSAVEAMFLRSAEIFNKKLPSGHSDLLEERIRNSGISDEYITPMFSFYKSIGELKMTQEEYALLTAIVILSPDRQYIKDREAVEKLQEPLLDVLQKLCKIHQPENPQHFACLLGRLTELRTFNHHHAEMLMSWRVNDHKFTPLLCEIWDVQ
The series can be described thus: Agonist activity at GST-tagged human FXR-LBD (193 to 472 residues) using biotinylated SRC-1 peptide as substrate incubated for 1 hrs by HTRF assay. Background: In TR-FRET formats the signal depends on donor and acceptor labels being close together.

Series [2] is described as follows: Solubility of compound in pH 6.5 FASSIF at 2 mg measured for 5 to 60 mins by UV spectroscopic method. Format: physicochemical.
Series [3] can be described thus: Permeability of the compound by PAMPA. Format: ADME. On the technique in general: PAMPA measures passive passage across an artificial lipid membrane.
Series [4] can be described thus: Clearance in Wistar rat at 3 mg/kg, iv. It is filed as ADME, organism-based. The conditions noted are these: in vivo.
Series [5] is described as follows: Volume of distribution at steady state in Wistar rat at 3 mg/kg, iv. It is filed as ADME, organism-based. The conditions noted are these: in vivo, read-out: Vdss.
A short description of series [6]: Half life in Wistar rat at 3 mg/kg, iv. Format: ADME, organism-based. To be noted: in vivo.
Series [7] in a line: Oral bioavailability in Wistar rat at 10 mg/kg in presence of PEG 300/D5W(3:1). Format: ADME, organism-based. To be noted: in vivo.
Series [8] can be described thus: Oral bioavailability in Wistar rat at 10 mg/kg in presence of 0.5% CMC/0.5% Tween 80. It is filed as ADME, organism-based. To be noted: in vivo.
The nature of series [9]: Oral bioavailability in Wistar rat at 10 mg/kg in presence of TRIS salt. Format: ADME, organism-based. To be noted: in vivo.
Series [10] is described as follows: Oral bioavailability in Wistar rat at 100 mg/kg in presence of TRIS salt. To be noted: in vivo. It is filed as ADME, organism-based.
Series [11] deals with T1, Bile acid receptor. The series can be described thus: Agonist activity at FXR transfected in human HEK293T cells o-expressing pGL3/hBSEP/luc incubated for 24 hrs by Steady-Glo reagent based luciferase reporter gene assay. It is filed as cell-based.
Another series deals with Mus musculus. The series can be described thus: Anti Steato-hepatitic activity in STZ/HFD induced C57BL/6J mouse STAM model assessed as reduction in NAS at 25 mg/kg, po administered via oral gavage once daily for 3 weeks and measured on 9 week by H and E staining based assay. It is filed as functional, organism-based.
Series [12] can be described thus: Lipophilicity, logD of compound at pH 6.8. Format: physicochemical. The conditions noted are these: buffer.

Molecules are shown by their SMILES. In brackets after ≈: the same amount, converted by molar mass. Activity calls are given as the source filed them. The rule behind the calls is not given here.

What is called EC50 is the concentration giving half of the maximal effect. A word on the solubility: it is how much of the substance goes into solution per volume. A lower solubility goes with little dissolved substance. A word on the clearance: it is a measure of how efficiently the substance is removed, as volume per time. What is called half-life is the time in which the quantity being followed falls by half. As usually defined, the bioavailability is the share of a dose that reaches the circulation, judged against a reference dose that is usually intravenous. Usually logD stands for the decadic logarithm of the distribution of all forms, ionised or not, between an organic phase and buffer at a given pH. A low value points to a more hydrophilic compound.

On to `CC(=O)NCCN(C)C(=O)c1nn(C)c2c1COc1ccccc1-2`, for which, at Bile acid receptor [1], the EC50 was more than 10 µM.

On to `CC(=O)NCCN(Cc1ccccn1)C(=O)c1nn(C)c2c1COc1ccc(Br)cc1-2`, for which, in series [2], the solubility was less than 2 µM.

In turn, `CC(=O)NCCN(Cc1ccccc1)C(=O)c1nn(C)c2c1COc1ccccc1-2` returned a solubility in series [2] of more than 175 µM.

On to `Cn1nc(C(=O)N(CCNc2cc(C(=O)O)ccc2F)Cc2cccc(F)c2)c2c1-c1cc(F)ccc1OC2`, for which, in [2], the solubility is more than 175 µM. Moreover, in [3], the permeability came to 96%. Also, the clearance in series [4] was determined as 19.9 mL/min/kg. Besides, the Vd in [5] was found to be 1.43 L/kg. In series [6], this compound showed a half-life of 1.97 h. Besides, the bioavailability in [7] stood at 22%; in series [8], 17%; in series [9], 15%; in [10], 12%.

For the compound `CC(=O)NCCN(Cc1cccc(F)c1)C(=O)c1nn(C)c2c1COc1ccc(Br)cc1-2`, the concentration in solution in series [2] (solubility) came to 80 µM (≈ 40.1 µg/mL).

As to `CC(=O)NCCN(Cc1ccccc1)C(=O)c1nn(C)c2c1COc1ccc(I)cc1-2`, in [2], the solubility stood at 3 µM (≈ 1.59 µg/mL).

In series [2], `CC(=O)NCCN(Cc1ccccc1)C(=O)c1nn(C)c2c1COc1ccc(Br)cc1-2` showed a solubility of 73 µM (≈ 35.3 µg/mL).

As to `CC(=O)NCCN(Cc1ccccc1)C(=O)c1nn(C(C)C)c2c1COc1ccc(Br)cc1-2`, the values for the EC50 at Bile acid receptor [1] and at Bile acid receptor [11] were 6 µM and 2.7 µM, respectively.

For the compound `CC(=O)NCCN(Cc1ccc(F)cc1)C(=O)c1nn(C)c2c1COc1ccc(Br)cc1-2`, the solubility in [2] is 41 µM (≈ 20.6 µg/mL).

Turning to `CC(=O)NCCNC(=O)c1nn(C)c2c1COc1ccccc1-2`, the EC50 at Bile acid receptor [1] was more than 10 µM.

On to `CC(=O)NCCN(Cc1ccccc1)C(=O)c1n[nH]c2c1COc1ccc(Br)cc1-2`, for which the EC50 is more than 10 µM on Bile acid receptor [1] and 11 µM at Bile acid receptor [11].

Regarding `CC(=O)NCCN(Cc1ccccc1)C(=O)c1nn(C)c2c1COc1ccc(Cl)cc1-2`, the solubility in series [2] was more than 175 µM.

In [2], `CC(=O)NCCN(Cc1ccccc1F)C(=O)c1nn(C)c2c1COc1ccc(Br)cc1-2` gave a solubility of less than 2 µM.

Compound `CC(=O)NCCN(Cc1ccccc1)C(=O)c1nn(C)c2c1COc1ccc(C3CC3)cc1-2` showed a solubility in series [2] of 9 µM (≈ 4 µg/mL).

Consider `Cn1nc(C(=O)N(CC(=O)Nc2cc(C(=O)O)ccc2F)Cc2cccc(F)c2)c2c1-c1cc(F)ccc1OC2`, for which the concentration in solution in [2] (solubility) was 46 µM (≈ 25.3 µg/mL). Besides, in [3], the permeability came out at 86%. Also, in [4], the clearance was found to be 9.6 mL/min/kg. For the same compound, the Vd in series [5] is 1.6 L/kg. Besides, in [6], the half-life is 3.6 h. In addition, the bioavailability in series [7] came to 36%; in [8], 5%; in [9] it was 56%; in series [10], 28%.

Take `CC(=O)NCCN(Cc1ccccc1)C(=O)c1c2c(nn1C)-c1cc(Br)ccc1OC2`: the figures for the EC50 on Bile acid receptor [1] and at Bile acid receptor [11] were 6 µM and more than 20 µM, respectively.

For the compound `CC[C@H]1[C@@H](O)[C@@H]2[C@H](CC[C@]3(C)[C@@H]([C@H](C)CCC(=O)O)CC[C@@H]23)[C@@]2(C)CC[C@@H](O)C[C@@H]12`, the result in the series on Mus musculus was inactive.

With `CC(=O)NCCN(C(=O)c1nn(C)c2c1COc1ccc(Cl)cc1-2)C(C)c1ccccc1` (racemic), the EC50 at Bile acid receptor [1] and at Bile acid receptor [11] was more than 10 µM throughout.

In series [2], `O=C(O)c1cc(F)c2nc(N3[C@@H]4CC[C@H]3C[C@@H](OCc3c(-c5ccccc5OC(F)(F)F)noc3C3CC3)C4)sc2c1` [TROPIFEXOR] had a solubility of 110 µM (≈ 66.4 µg/mL). Besides, the logD in [12] worked out at 3.2.

For the origin of these results see ChEMBL document CHEMBL4402557, “Nidufexor (LMB763), a Novel FXR Modulator for the Treatment of Nonalcoholic Steatohepatitis” (J Med Chem, 2020).
